Earlier results as cited in patent US20230158004A1, “ENTERIC-COATED PREPARATION COMPRISING PIRFENIDONE HAVING IMPROVED SAFETY AND STABILITY, AND METHOD FOR PREPARING SAME” (YUNGJIN PHARM. CO., LTD., priority 2020, published 2023).

Conditions: healthy adults and patients with idiopathic pulmonary fibrosis, total 1,650 people

For Cc1ccc(=O)n(-c2ccccc2)c1 [pirfenidone, 5-methyl-1-phenyl-2-(1H)-pyridone], the anorexia is given as 11.4%, the diarrhea is given as 18.8% and the headache is given as 10.1%. The indigestion was 16.1%, the nausea was 32.4% and the photosensitivity was 9.3%. The rash was 26.2%.
